Measurements published in PubChem BioAssay (NCI).
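Interpolation was linear, between the two tested concentrations surrounding the appropriate level; five concentrations were tested over 48 hours in 96-well plates. TGI is the concentration that stops growth completely.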

What was measured:
Test in all cases: growth of human tumour cells (NCI), 48 h
UACC-257 melanoma = test system: UACC-257 melanoma
UO-31 renal = test system: UO-31 renal
SK-MEL-28 melanoma = test system: SK-MEL-28 melanoma
SNB-19 CNS = test system: SNB-19 CNS
HCC-2998 colon = test system: HCC-2998 colon
MDA-N = test system: MDA-N
IGROV1 ovarian = test system: IGROV1 ovarian
HT29 colon = test system: HT29 colon
EKVX NSCLC = test system: EKVX NSCLC
HCT-116 colon = test system: HCT-116 colon
OVCAR-8 ovarian = test system: OVCAR-8 ovarian
HOP-62 NSCLC = test system: HOP-62 NSCLC
SF-268 CNS = test system: SF-268 CNS
TK-10 renal = test system: TK-10 renal
SNB-75 CNS = test system: SNB-75 CNS
SN12C renal = test system: SN12C renal
ACHN renal = test system: ACHN renal
786-0 renal = test system: 786-0 renal
HCT-15 colon = test system: HCT-15 colon
NCI/ADR-RES ovarian = test system: NCI/ADR-RES ovarian
SF-295 CNS = test system: SF-295 CNS
HS 578T breast = test system: HS 578T breast
SK-MEL-5 melanoma = test system: SK-MEL-5 melanoma
COLO 205 colon = test system: COLO 205 colon
M14 melanoma = test system: M14 melanoma
U251 CNS = test system: U251 CNS
SR leukemia = test system: SR leukemia
A549 NSCLC = test system: A549 NSCLC
SK-OV-3 ovarian = test system: SK-OV-3 ovarian
NCI-H460 lung = test system: NCI-H460 lung
SF-539 CNS = test system: SF-539 CNS
SW-620 colon = test system: SW-620 colon
T-47D breast = test system: T-47D breast
RPMI-8226 leukemia = test system: RPMI-8226 leukemia
MDA-MB-231 breast = test system: MDA-MB-231 breast
PC-3 prostate = test system: PC-3 prostate
NCI-H522 lung = test system: NCI-H522 lung
MCF7 breast = test system: MCF7 breast
OVCAR-4 ovarian = test system: OVCAR-4 ovarian
CCRF-CEM leukemia = test system: CCRF-CEM leukemia
OVCAR-5 ovarian = test system: OVCAR-5 ovarian
KM12 colon = test system: KM12 colon
SK-MEL-2 melanoma = test system: SK-MEL-2 melanoma
HOP-92 NSCLC = test system: HOP-92 NSCLC
K-562 leukemia = test system: K-562 leukemia
NCI-H226 lung = test system: NCI-H226 lung
BT-549 breast = test system: BT-549 breast
OVCAR-3 ovarian = test system: OVCAR-3 ovarian
MDA-MB-435 = test system: MDA-MB-435
A498 renal = test system: A498 renal
UACC-62 melanoma = test system: UACC-62 melanoma
CAKI-1 renal = test system: CAKI-1 renal
NCI-H23 lung = test system: NCI-H23 lung
RXF 393 renal = test system: RXF 393 renal
MALME-3M melanoma = test system: MALME-3M melanoma

Which TGI (UACC-257 melanoma) does the source give for `COc1cc(C2c3cc4c(cc3[C@@H](Nc3ccccc3)C3COC[C@H]23)OCO4)cc(OC)c1O` (stereo partly specified) here?
The TGI was 50.4 µM.

What about the TGI (UO-31 renal) of the same compound?
Its TGI is 3.71 µM.

And the TGI (SK-MEL-28 melanoma)?
Its TGI is 39.1 µM.

What about the TGI (SNB-19 CNS) of the same compound?
Its TGI is greater than 100 µM.

What about the TGI (HCC-2998 colon) of the same compound?
Its TGI is greater than 100 µM.

What about the TGI (MDA-N) of the same compound?
The TGI was greater than 100 µM.

And the TGI (IGROV1 ovarian)?
The TGI was greater than 100 µM.

What about the TGI (HT29 colon) of the same compound?
The TGI was 45.5 µM.

What about the TGI (EKVX NSCLC) of the same compound?
The TGI was greater than 100 µM.

And the TGI (HCT-116 colon)?
The TGI was 19.8 µM.

What about the TGI (OVCAR-8 ovarian) of the same compound?
The TGI was greater than 100 µM.

And the TGI (HOP-62 NSCLC)?
The TGI was greater than 100 µM.

What about the TGI (SF-268 CNS) of the same compound?
Its TGI is greater than 100 µM.

What about the TGI (TK-10 renal) of the same compound?
Its TGI is greater than 100 µM.

And the TGI (SNB-75 CNS)?
Its TGI is 11.9 µM.

And the TGI (SN12C renal)?
Its TGI is 54.3 µM.

What about the TGI (ACHN renal) of the same compound?
The TGI was 3.82 µM.

What about the TGI (786-0 renal) of the same compound?
Its TGI is 2.3 µM.

What about the TGI (HCT-15 colon) of the same compound?
Its TGI is 12.9 µM.

And the TGI (NCI/ADR-RES ovarian)?
The TGI was greater than 100 µM.

And the TGI (SF-295 CNS)?
Its TGI is 3.36 µM.

And the TGI (HS 578T breast)?
Its TGI is 12.4 µM.

And the TGI (SK-MEL-5 melanoma)?
The TGI was 68.9 µM.

And the TGI (COLO 205 colon)?
Its TGI is 70.7 µM.

What about the TGI (M14 melanoma) of the same compound?
Its TGI is greater than 100 µM.

What about the TGI (U251 CNS) of the same compound?
Its TGI is 16.1 µM.

What about the TGI (SR leukemia) of the same compound?
The TGI was 16.5 µM.

And the TGI (A549 NSCLC)?
The TGI was 14 µM.

What about the TGI (SK-OV-3 ovarian) of the same compound?
Its TGI is greater than 100 µM.

What about the TGI (NCI-H460 lung) of the same compound?
The TGI was 5 µM.

And the TGI (SF-539 CNS)?
Its TGI is 4.35 µM.

What about the TGI (SW-620 colon) of the same compound?
Its TGI is greater than 100 µM.

What about the TGI (T-47D breast) of the same compound?
The TGI was greater than 100 µM.

What about the TGI (RPMI-8226 leukemia) of the same compound?
The TGI was 5.22 µM.

What about the TGI (MDA-MB-231 breast) of the same compound?
The TGI was 24.5 µM.

And the TGI (PC-3 prostate)?
The TGI was greater than 100 µM.

And the TGI (NCI-H522 lung)?
Its TGI is 25.8 µM.

And the TGI (MCF7 breast)?
The TGI was greater than 100 µM.

And the TGI (OVCAR-4 ovarian)?
Its TGI is greater than 100 µM.

And the TGI (CCRF-CEM leukemia)?
The TGI was 2.15 µM.

And the TGI (OVCAR-5 ovarian)?
Its TGI is 9.83 µM.

What about the TGI (KM12 colon) of the same compound?
Its TGI is 32.5 µM.

`CCOP(=O)(OCC)/C(C#N)=C/c1cn(C)cn1` was tested. Which TGI (UACC-257 melanoma) did it give?
Its TGI is greater than 100 µM.

What about the TGI (UO-31 renal) of the same compound?
Its TGI is greater than 100 µM.

And the TGI (SK-MEL-28 melanoma)?
Its TGI is greater than 100 µM.

What about the TGI (SK-MEL-2 melanoma) of the same compound?
Its TGI is greater than 100 µM.

And the TGI (SNB-19 CNS)?
Its TGI is greater than 100 µM.

And the TGI (HCC-2998 colon)?
Its TGI is greater than 100 µM.

What about the TGI (HOP-92 NSCLC) of the same compound?
Its TGI is greater than 100 µM.

And the TGI (MDA-N)?
The TGI was greater than 100 µM.

And the TGI (IGROV1 ovarian)?
Its TGI is greater than 100 µM.

And the TGI (HT29 colon)?
Its TGI is greater than 100 µM.

And the TGI (EKVX NSCLC)?
The TGI was greater than 100 µM.

What about the TGI (OVCAR-8 ovarian) of the same compound?
Its TGI is greater than 100 µM.

And the TGI (K-562 leukemia)?
The TGI was greater than 100 µM.

What about the TGI (HOP-62 NSCLC) of the same compound?
The TGI was greater than 100 µM.

And the TGI (SF-268 CNS)?
Its TGI is greater than 100 µM.

And the TGI (TK-10 renal)?
The TGI was greater than 100 µM.

And the TGI (SNB-75 CNS)?
Its TGI is greater than 100 µM.

And the TGI (SN12C renal)?
The TGI was greater than 100 µM.

And the TGI (ACHN renal)?
Its TGI is greater than 100 µM.

And the TGI (NCI-H226 lung)?
The TGI was greater than 100 µM.

What about the TGI (HCT-15 colon) of the same compound?
The TGI was greater than 100 µM.

What about the TGI (BT-549 breast) of the same compound?
Its TGI is greater than 100 µM.

And the TGI (NCI/ADR-RES ovarian)?
Its TGI is greater than 100 µM.

What about the TGI (SF-295 CNS) of the same compound?
Its TGI is greater than 100 µM.

What about the TGI (OVCAR-3 ovarian) of the same compound?
Its TGI is greater than 100 µM.

What about the TGI (COLO 205 colon) of the same compound?
The TGI was greater than 100 µM.

What about the TGI (M14 melanoma) of the same compound?
Its TGI is greater than 100 µM.

What about the TGI (U251 CNS) of the same compound?
The TGI was greater than 100 µM.

And the TGI (MDA-MB-435)?
The TGI was greater than 100 µM.

What about the TGI (SR leukemia) of the same compound?
Its TGI is greater than 100 µM.

And the TGI (A549 NSCLC)?
The TGI was greater than 100 µM.

And the TGI (SK-OV-3 ovarian)?
Its TGI is greater than 100 µM.

And the TGI (NCI-H460 lung)?
Its TGI is greater than 100 µM.

What about the TGI (SF-539 CNS) of the same compound?
Its TGI is greater than 100 µM.

What about the TGI (SW-620 colon) of the same compound?
The TGI was greater than 100 µM.

What about the TGI (A498 renal) of the same compound?
Its TGI is greater than 100 µM.

What about the TGI (MDA-MB-231 breast) of the same compound?
The TGI was greater than 100 µM.

And the TGI (PC-3 prostate)?
The TGI was greater than 100 µM.

And the TGI (NCI-H522 lung)?
Its TGI is greater than 100 µM.

What about the TGI (UACC-62 melanoma) of the same compound?
The TGI was greater than 100 µM.

What about the TGI (MCF7 breast) of the same compound?
The TGI was greater than 100 µM.

What about the TGI (CAKI-1 renal) of the same compound?
Its TGI is greater than 100 µM.

What about the TGI (NCI-H23 lung) of the same compound?
The TGI was greater than 100 µM.

What about the TGI (RXF 393 renal) of the same compound?
The TGI was greater than 100 µM.

What about the TGI (OVCAR-4 ovarian) of the same compound?
Its TGI is greater than 100 µM.

What about the TGI (CCRF-CEM leukemia) of the same compound?
The TGI was greater than 100 µM.

And the TGI (OVCAR-5 ovarian)?
Its TGI is greater than 100 µM.

What about the TGI (KM12 colon) of the same compound?
Its TGI is greater than 100 µM.

And the TGI (MALME-3M melanoma)?
Its TGI is greater than 100 µM.
